Measurements as given in article PMC9944328 (Nature Communications, 2023).
Where “and” joins values, the source holds several entries; their conditions need not be identical. Equal entries are not always repeated.

Target: SSTR2 (Homo sapiens, UniProt P30874)
Assay: NanoBiT β-arrestin 1 recruitment assay, HEK293 (SSTR2 wild-type);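 for Bottom (best-fit): percent of maximal wild-type response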;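 for Bottom: percent of maximal wild-type response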;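 for Span (best-fit value): percent of maximal wild-type response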;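 for Span (best-fit): percent of maximal wild-type response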;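 for Span: percent of maximal wild-type response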;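 for Top (best-fit value): percent of maximal wild-type response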;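 for Top (best-fit): percent of maximal wild-type response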;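 for Top: percent of maximal wild-type response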
Type: cell-based
Design: Human full-length SSTR wild-type and mutant vectors were C-terminally fused; expressed in transfected cells; host or cells: HEK293; Best-fit values Bottom / Best-fit values Top / Best-fit values Span / Best-fit Bottom / Best-fit Top / Best-fit Span: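 percent of maximal wild-type response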
Conditions: for Span (best-fit value) / Top (best-fit value): β-arrestin1 recruitment
Procedure: The NanoBiT β-arrestin 1 recruitment assays were carried out according to the method described previously. […] Human full-length SSTR wild-type and mutant vectors were C-terminally fused with a 15-amino acid flexible linker and the small fragment (SmBiT). HEK293 cells were seeded into six-well microplates at a density of 1.0 × 10^6 cells/well and cultured for 24 h at 37 °C with 5% CO2. After that, cells were co-transfected with pcDNA3.1+ vectors encoding SSTR wild-type or mutants and human β-arrestin 1. After transfecting for 24 h, the transfected cells were suspended and seeded into white 96-well plates, and then cultured at 37 °C overnight. After that the medium in each well was exchanged for 90 μl of 0.01% bovine serum albumin containing 20 μl of 50 μM coelenterazine h (Carbosynth) diluted in the HBSS assay buffer and incubated for 40 min at room temperature. Then, ligands diluted in the assay buffer was added to each well and the luminescence intensity was measured using the Synergy H1 microplate reader and detected at room temperature in a time period. All data presented are means of at least three independent experiments.

[1] = D122A set WT-3 = Q126A/Y205A set WT-2 = F208A set WT-3
[2] = F127A set WT-1 = I130A set WT-2
[3] = F127A set WT-3 = I130A set WT-1
[4] = Q126A/I130A set WT-3 = F127A set WT-2
[5] = SSTR2 WT-1 (run 1 of WT in the mutant's section)
[6] = SSTR2 WT-2 (run 2 of WT in the mutant's section)
[7] = SSTR2 WT-3 (run 3 of WT in the mutant's section)
[8] = best-fit value, WT-1 (run 1, WT of each mutant's batch)
[9] = best-fit value, WT-2 (run 2, WT of each mutant's batch)
[10] = best-fit value, WT-3 (run 3, WT of each mutant's batch)

Sequence of SSTR2 (P30874 whole entry): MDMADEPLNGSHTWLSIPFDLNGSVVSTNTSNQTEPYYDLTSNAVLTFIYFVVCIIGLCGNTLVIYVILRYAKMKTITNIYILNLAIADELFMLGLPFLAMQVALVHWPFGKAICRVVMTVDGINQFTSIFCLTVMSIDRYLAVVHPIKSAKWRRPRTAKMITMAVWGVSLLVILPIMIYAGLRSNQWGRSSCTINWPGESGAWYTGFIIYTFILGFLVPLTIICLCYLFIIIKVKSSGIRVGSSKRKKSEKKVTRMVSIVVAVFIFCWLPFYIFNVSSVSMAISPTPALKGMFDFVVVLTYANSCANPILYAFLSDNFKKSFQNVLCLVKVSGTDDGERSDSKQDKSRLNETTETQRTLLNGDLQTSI
Sequence of SSTR2 (P49407 whole entry partner): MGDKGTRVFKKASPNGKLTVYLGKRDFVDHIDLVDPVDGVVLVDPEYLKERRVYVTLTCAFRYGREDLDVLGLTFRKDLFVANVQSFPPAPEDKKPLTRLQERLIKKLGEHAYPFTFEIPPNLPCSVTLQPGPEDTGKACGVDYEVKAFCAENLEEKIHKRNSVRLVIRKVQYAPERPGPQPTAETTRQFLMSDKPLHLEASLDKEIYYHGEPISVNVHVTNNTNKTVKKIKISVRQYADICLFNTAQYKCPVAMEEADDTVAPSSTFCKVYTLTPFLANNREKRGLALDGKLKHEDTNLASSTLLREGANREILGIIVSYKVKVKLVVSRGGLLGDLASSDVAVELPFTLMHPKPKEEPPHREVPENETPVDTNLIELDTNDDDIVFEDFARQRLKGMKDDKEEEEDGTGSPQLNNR

With `C[C@@H](O)[C@@H]1NC(=O)[C@H](CCCCN)NC(=O)[C@@H](Cc2c[nH]c3ccccc23)NC(=O)[C@H](Cc2ccccc2)NC(=O)[C@@H](NC(=O)[C@H](N)Cc2ccccc2)CSSC[C@@H](C(=O)N[C@H](CO)[C@@H](C)O)NC1=O` [octreotide] the “Bottom (best-fit)” value (D122A set WT-1) was 12.18, the “Span (best-fit)” value (D122A set WT-1) was 93.68 and the “Top (best-fit)” value (D122A set WT-1) was 105.9. For the same compound, the “Bottom (best-fit)” value (D122A set WT-2) was 4.265, the “Span (best-fit)” value (D122A set WT-2) was 83.04 and the “Top (best-fit)” value (D122A set WT-2) was 87.31. For the same compound, the “Bottom (best-fit)” value [1] was -0.5169, the “Span (best-fit)” value [1] was 99.09 and the “Top (best-fit)” value [1] was 98.58. For the same compound, the “Bottom (best-fit)” value [2] was -0.5804, the “Span (best-fit)” value [2] was 101.3 and the “Top (best-fit)” value [2] was 100.7. For the same compound, the “Bottom (best-fit)” value [3] was -0.2332, the “Span (best-fit)” value [3] was 101 and the “Top (best-fit)” value [3] was 100.8. For the same compound, the “Bottom (best-fit)” value (F208A set WT-1) was -0.7342, the “Span (best-fit)” value (F208A set WT-1) was 99.34 and the “Top (best-fit)” value (F208A set WT-1) was 98.6. The “Bottom (best-fit)” value (F208A set WT-2) was -1.061, the “Span (best-fit)” value (F208A set WT-2) was 99.77 and the “Top (best-fit)” value (F208A set WT-2) was 98.71. The Emax (HEK293) was 100%, the “Bottom (best-fit)” value (Q126A set WT-1) was -2.277 and the “Span (best-fit)” value (Q126A set WT-1) was 105. The “Top (best-fit)” value (Q126A set WT-1) was 102.7, the “Bottom (best-fit)” value [4] was 0.158 and the “Span (best-fit)” value [4] was 100.8. For the same compound, the “Top (best-fit)” value [4] was 100.9, the “Span (best-fit value)” value [5] was 93.68 and 99.09 and 83.04 and 90.27 and 99.77 and the “Top (best-fit value)” value [5] was 105.9 and 98.58 and 87.31 and 89.81 and 98.2. The “Span (best-fit value)” value [6] was 83.04 and 105 and 80.44 and 93.46 and 96.97, the “Top (best-fit value)” value [6] was 87.31 and 102.7 and 85.95 and 93.4 and 96.99 and the “Span (best-fit value)” value [7] was 99.09 and 101.1 and 95.18 and 96.4. The “Top (best-fit value)” value [7] was 98.58 and 97.65 and 95.41 and 96.36, the “Best-fit values Bottom” value (WT-1 (F265A set)) was 0.158 and the “Best-fit values Span” value (WT-1 (F265A set)) was 100.8. For the same compound, the “Best-fit values Top” value (WT-1 (F265A set)) was 100.9, the “Best-fit values Bottom” value (WT-1 (F272A set)) was 4.265 and the “Best-fit values Span” value (WT-1 (F272A set)) was 83.04. For the same compound, the “Best-fit values Top” value (WT-1 (F272A set)) was 87.31, the “Best-fit values Bottom” value (WT-1 (K291A set)) was 12.18 and the “Best-fit values Bottom” value (WT-1 (N276A set)) was 12.18. For the same compound, the “Best-fit values Span” value (WT-1 (N276A set)) was 93.68, the “Best-fit values Top” value (WT-1 (N276A set)) was 105.9 and the “Best-fit values Bottom” value (WT-1 (P220A set)) was 1.374. For the same compound, the “Best-fit values Span” value (WT-1 (P220A set)) was 94.44, the “Best-fit values Top” value (WT-1 (P220A set)) was 95.82 and the “Best-fit values Bottom” value (WT-1 (W269A set)) was -1.494. For the same compound, the “Best-fit values Span” value (WT-1 (W269A set)) was 99.94, the “Best-fit values Top” value (WT-1 (W269A set)) was 98.45 and the “Best-fit values Bottom” value (WT-2 (F265A set)) was -0.2332. The “Best-fit values Span” value (WT-2 (F265A set)) was 101, the “Best-fit values Top” value (WT-2 (F265A set)) was 100.8 and the “Best-fit values Bottom” value (WT-2 (F272A set)) was 12.18. For the same compound, the “Best-fit values Span” value (WT-2 (F272A set)) was 93.68, the “Best-fit values Top” value (WT-2 (F272A set)) was 105.9 and the “Best-fit values Bottom” value (WT-2 (K291A set)) was 4.265. For the same compound, the “Best-fit values Bottom” value (WT-2 (N276A set)) was 4.265, the “Best-fit values Span” value (WT-2 (N276A set)) was 83.04 and the “Best-fit values Top” value (WT-2 (N276A set)) was 87.31. For the same compound, the “Best-fit values Bottom” value (WT-2 (P220A set)) was -0.5804, the “Best-fit values Span” value (WT-2 (P220A set)) was 101.3 and the “Best-fit values Top” value (WT-2 (P220A set)) was 100.7. The “Best-fit values Bottom” value (WT-2 (W269A set)) was 12.18, the “Best-fit values Span” value (WT-2 (W269A set)) was 93.68 and the “Best-fit values Top” value (WT-2 (W269A set)) was 105.9. For the same compound, the “Best-fit values Bottom” value (WT-3 (F265A set)) was -0.5804, the “Best-fit values Span” value (WT-3 (F265A set)) was 101.3 and the “Best-fit values Top” value (WT-3 (F265A set)) was 100.7. The “Best-fit values Bottom” value (WT-3 (F272A set)) was -0.5169, the “Best-fit values Span” value (WT-3 (F272A set)) was 99.09 and the “Best-fit values Top” value (WT-3 (F272A set)) was 98.58. The “Best-fit values Bottom” value (WT-3 (K291A set)) was -0.5169, the “Best-fit values Bottom” value (WT-3 (N276A set)) was -0.5169 and the “Best-fit values Span” value (WT-3 (N276A set)) was 99.09. For the same compound, the “Best-fit values Top” value (WT-3 (N276A set)) was 98.58, the “Best-fit values Bottom” value (WT-3 (P220A set)) was -0.2332 and the “Best-fit values Span” value (WT-3 (P220A set)) was 101. For the same compound, the “Best-fit values Top” value (WT-3 (P220A set)) was 100.8, the “Best-fit values Bottom” value (WT-3 (W269A set)) was 6.264 and the “Best-fit values Span” value (WT-3 (W269A set)) was 85.81. For the same compound, the “Best-fit values Top” value (WT-3 (W269A set)) was 92.07, the “Bottom (best-fit)” value (Y205A set WT-1) was -3.442 and the “Span (best-fit)” value (Y205A set WT-1) was 101.1. For the same compound, the “Top (best-fit)” value (Y205A set WT-1) was 97.65, the “Bottom (best-fit)” value (Y205A set WT-3) was 2.142 and the “Span (best-fit)” value (Y205A set WT-3) was 104.5. For the same compound, the “Top (best-fit)” value (Y205A set WT-3) was 106.6, the Span [8] was 99.09 and 101 and 68.4 and the Top [8] was 98.58 and 100.8 and 104.3. For the same compound, the Span [9] was 99.09 and 99.34 and 102.9 and 105, the Top [9] was 98.58 and 98.6 and 97.73 and 102.7 and the Span [10] was 99.09 and 99.77 and 100.8 and 101.1. For the same compound, the Top [10] was 98.58 and 98.71 and 100.9 and 97.65, the Bottom (best-fit, WT-1 (I284A batch)) was 12.18 and the Span (best-fit, WT-1 (I284A batch)) was 93.68. The Top (best-fit, WT-1 (I284A batch)) was 105.9, the Bottom (best-fit, WT-1 (P286A batch)) was 5.515 and the Span (best-fit, WT-1 (P286A batch)) was 80.44. For the same compound, the Top (best-fit, WT-1 (P286A batch)) was 85.95, the Bottom (best-fit, WT-1 (S285A batch)) was 6.264 and the Span (best-fit, WT-1 (S285A batch)) was 85.81. The Top (best-fit, WT-1 (S285A batch)) was 92.07, the Bottom (best-fit, WT-1 (T194A batch)) was -0.5169 and the Top (best-fit, WT-1 (T194A batch)) was 98.58. The Bottom (best-fit, WT-1 (T287A batch)) was 4.265, the Span (best-fit, WT-1 (T287A batch)) was 83.04 and the Top (best-fit, WT-1 (T287A batch)) was 87.31. It also gave a Bottom (best-fit, WT-1 (W188A batch)) of 6.264, a Span (best-fit, WT-1 (W188A batch)) of 85.81 and a Top (best-fit, WT-1 (W188A batch)) of 92.07. It also gave a Bottom (best-fit, WT-2 (I284A batch)) of -1.639, a Span (best-fit, WT-2 (I284A batch)) of 102.1 and a Top (best-fit, WT-2 (I284A batch)) of 100.5. It also gave a Bottom (best-fit, WT-2 (P286A batch)) of 4.265, a Span (best-fit, WT-2 (P286A batch)) of 83.04 and a Top (best-fit, WT-2 (P286A batch)) of 87.31. It also gave a Bottom (best-fit, WT-2 (S285A batch)) of 12.18, a Span (best-fit, WT-2 (S285A batch)) of 93.68 and a Top (best-fit, WT-2 (S285A batch)) of 105.9. It also gave a Bottom (best-fit, WT-2 (T194A batch)) of -0.7342, a Top (best-fit, WT-2 (T194A batch)) of 98.6 and a Bottom (best-fit, WT-2 (T287A batch)) of 5.515. For the same compound, the Span (best-fit, WT-2 (T287A batch)) was 80.44, the Top (best-fit, WT-2 (T287A batch)) was 85.95 and the Bottom (best-fit, WT-2 (W188A batch)) was -0.5169. For the same compound, the Span (best-fit, WT-2 (W188A batch)) was 99.09, the Top (best-fit, WT-2 (W188A batch)) was 98.58 and the Bottom (best-fit, WT-3 (I284A batch)) was 6.264. For the same compound, the Span (best-fit, WT-3 (I284A batch)) was 85.81, the Top (best-fit, WT-3 (I284A batch)) was 92.07 and the Bottom (best-fit, WT-3 (P286A batch)) was 4.265. It also gave a Span (best-fit, WT-3 (P286A batch)) of 83.04, a Top (best-fit, WT-3 (P286A batch)) of 87.31 and a Bottom (best-fit, WT-3 (S285A batch)) of 4.265. For the same compound, the Span (best-fit, WT-3 (S285A batch)) was 83.04, the Top (best-fit, WT-3 (S285A batch)) was 87.31 and the Bottom (best-fit, WT-3 (T194A batch)) was -1.061. The Top (best-fit, WT-3 (T194A batch)) was 98.71, the Bottom (best-fit, WT-3 (T287A batch)) was -0.5169 and the Span (best-fit, WT-3 (T287A batch)) was 99.09. It also gave a Top (best-fit, WT-3 (T287A batch)) of 98.58, a Bottom (best-fit, WT-3 (W188A batch)) of 12.18 and a Span (best-fit, WT-3 (W188A batch)) of 93.68. It also gave a Top (best-fit, WT-3 (W188A batch)) of 105.9.
